According to patent US10385103B2, “Cell-permeable (ICP)-SOCS3 recombinant protein and uses thereof” (CELLIVERY THERAPEUTICS, INC., priority 2014, dated 2019):

Test system: RAW 264.7 cells
Experiment: Quantitative cell-permeability of FITC-labeled aMTD- or rPeptide-fused CRA recombinant proteins (flow cytometry)
Type: cell-based
Details: for Relative Ratio to aMTD AVE: cell-permeability of rPeptide-fused CRA recombinant protein relative to average of 240 aMTDs
Excerpt: The aMTDs and rPeptides were fluorescently labeled and compared based on the critical factors for cell-permeability by using flow cytometry and confocal laser scanning microscopy (FIGS. 5 to 8). The cellular uptake of the peptide-fused non-functional cargo recombinant proteins could quantitatively be evaluated in flow cytometry, while confocal laser scanning microscopy allows intracellular uptake to be assessed visually. The analysis included recombinant proteins fused to a negative control [rP38] that has opposite characteristics (hydrophilic and aromatic sequence: […] NO: 952)) to the aMTDs (hydrophobic and aliphatic sequences). Relative cell-permeability (relative fold) of aMTDs to the negative control was also analyzed (Table 23 and FIG. 9). […] RAW 264.7 cells were treated with 10 μM FITC-labeled recombinant proteins for 1 hour at 37° C., washed three times with cold PBS, treated with 0.25% tripsin/EDTA (Sigma-Aldrich, St. Louis, Mo.) for 20 minutes at 37° C. to remove cell-surface bound proteins. Cell-permeability of these recombinant proteins were analyzed by flow cytometry (Guava, Millipore, Darmstadt, Germany) using the FlowJo cytometric analysis software (FIGS. 5 to 6).

[1] = cell-permeability of aMTD-fused CRA recombinant protein relative to negative control (A: rP38)
[2] = cell-permeability of aMTD-fused CRA recombinant protein relative to reference CPP (B: MTM12)
[3] = cell-permeability of aMTD-fused CRA recombinant protein relative to reference CPP (C: MTD85)
[4] = cell-permeability relative to negative control rP38 (A type), aMTD-fused CRA recombinant protein, 10 μM FITC-labeled, 1 hour, 37° C., RAW 264.7 cells
[5] = cell-permeability relative to reference CPP MTD85 (C type), aMTD-fused CRA recombinant protein, 10 μM FITC-labeled, 1 hour, 37° C., RAW 264.7 cells
[6] = cell-permeability relative to reference CPP MTM12 (B type), aMTD-fused CRA recombinant protein, 10 μM FITC-labeled, 1 hour, 37° C., RAW 264.7 cells
[7] = 10 μM FITC-labeled, 1 hour, 37° C., RAW 264.7 cells

Substance	Relative Ratio (Fold) A [1]	Relative Ratio (Fold) B [2]	Relative Ratio (Fold) C [3]	also measured
878 (IVALVAPAAVVP; Amino acid Sequence of aMTD878) [compound 878]	10.3 Fold	6.9 Fold	3.5 Fold	
141 (AVIVLPALAVAP; Amino acid Sequence of aMTD141) [compound 141]	9.4 Fold	6.3 Fold	3.2 Fold	
783 (IVALVPAVAIAP; Amino acid Sequence of aMTD783) [compound 783]				Relative Ratio (Fold) A [4]: 5.7 Fold; Relative Ratio (Fold) C [5]: 1.9 Fold; Relative Ratio (Fold) B [6]: 3.8 Fold
243 (AAVLLPVALAAP; Amino acid Sequence of aMTD243) [compound 243]				Relative Ratio (Fold) A [4]: 5.9 Fold; Relative Ratio (Fold) C [5]: 2.0 Fold; Relative Ratio (Fold) B [6]: 3.9 Fold
384 (VIVAIAPALLAP; Amino acid Sequence of aMTD384) [compound 384]	14.0 Fold	9.4 Fold	4.7 Fold	
364 (LVAAVAPALIVP; Amino acid Sequence of aMTD364) [compound 364]				Relative Ratio (Fold) A [4]: 6.5 Fold; Relative Ratio (Fold) C [5]: 2.2 Fold; Relative Ratio (Fold) B [6]: 4.3 Fold
1 (AAALAPVVLALP; Amino acid Sequence of aMTD1) [compound 1]	17.7 Fold	11.8 Fold	6.0 Fold	
227 (LAAIVPIAAAVP; Amino acid Sequence of rPeptide ID 227) [compound 227]				Relative Ratio to aMTD AVE [7]: 0.08
904 (AVLAVVAPVVAP; Amino acid Sequence of aMTD904) [compound 904]	106.7 Fold	70.8 Fold	35.8 Fold	Relative Ratio (Fold) A (relative cell-permeability of aMTD vs reference A (not defined)): 105.7 Fold
564 (VAIALIVPALAP; Amino acid Sequence of aMTD564) [compound 564]	43.6 Fold	29.1 Fold	14.7 Fold	
521 (LAALIVVPAVAP; Amino acid Sequence of aMTD521) [compound 521]	9.4 Fold	6.3 Fold	3.2 Fold	
901 (ALVAVLPAVAVP; Amino acid Sequence of aMTD901) [compound 901]	7.7 Fold	5.1 Fold	2.6 Fold	
182 (ALIAPVVALVAP; Amino acid Sequence of aMTD182) [compound 182]				Relative Ratio (Fold) A [4]: 4.0 Fold; Relative Ratio (Fold) C [5]: 1.4 Fold; Relative Ratio (Fold) B [6]: 2.7 Fold
341 (IVAVALPAVLAP; Amino acid Sequence of aMTD341) [compound 341]	16.4 Fold	10.9 Fold	5.5 Fold	
462 (IAAVLVPAVALP; Amino acid Sequence of aMTD462) [compound 462]				Relative Ratio (Fold) A [4]: 6.3 Fold; Relative Ratio (Fold) C [5]: 2.1 Fold; Relative Ratio (Fold) B [6]: 4.2 Fold
68 (VAPVLPAAPLVP; Amino acid Sequence of rPeptide ID 68) [compound 68]				Relative Ratio to aMTD AVE [7]: 0.32
284 (ALIAPAVALIVP; Amino acid Sequence of aMTD284) [compound 284]				Relative Ratio (Fold) A [4]: 2.8 Fold; Relative Ratio (Fold) C [5]: 0.9 Fold; Relative Ratio (Fold) B [6]: 1.8 Fold

Substance	Relative Ratio (Fold) A [1]	Relative Ratio (Fold) B [2]	Relative Ratio (Fold) C [3]	also measured
465 (IAAVIVPVAALP; Amino acid Sequence of aMTD465) [compound 465]	7.4 Fold	4.9 Fold	2.5 Fold	
764 (AVALAVLPAVVP; Amino acid Sequence of aMTD764) [compound 764]				Relative Ratio (Fold) A [4]: 5.0 Fold; Relative Ratio (Fold) C [5]: 1.7 Fold; Relative Ratio (Fold) B [6]: 3.4 Fold
242 (AALLVPALVAAP; Amino acid Sequence of aMTD242) [compound 242]	14.6 Fold	9.7 Fold	4.9 Fold	
201 (LALAVPALAALP; Amino acid Sequence of aMTD201) [compound 201]				Relative Ratio (Fold) A [4]: 4.2 Fold; Relative Ratio (Fold) C [5]: 1.4 Fold; Relative Ratio (Fold) B [6]: 2.8 Fold
700 (GTSNTCQSNQNS; Amino acid Sequence of rPeptide ID 700) [compound 700]				Relative Ratio to aMTD AVE [7]: 0.05; Relative Ratio (Fold) A (relative cell-permeability of rPeptide vs reference A (not defined)): 1.0 Fold; Relative Ratio (Fold) B (relative cell-permeability of rPeptide vs reference CPP B: MTM12): 0.6 Fold; Relative Ratio (Fold) C (relative cell-permeability of rPeptide vs reference CPP C: MTD85): 0.3 Fold
726 (LAVAIIAPAVAP; Amino acid Sequence of aMTD726) [compound 726]	16.5 Fold	11.0 Fold	5.6 Fold	
852 (VLAVAAPAVLLP; Amino acid Sequence of aMTD852) [compound 852]	84.6 Fold	56.6 Fold	28.6 Fold	
766 (IVVIAVAPAVAP; Amino acid Sequence of aMTD766) [compound 766]	12.9 Fold	8.6 Fold	4.4 Fold	
301 (VIAAPVLAVLAP; Amino acid Sequence of aMTD301) [compound 301]				Relative Ratio (Fold) A [4]: 6.0 Fold; Relative Ratio (Fold) C [5]: 2.0 Fold; Relative Ratio (Fold) B [6]: 4.0 Fold
845 (AAVVIAPLLAVP; Amino acid Sequence of aMTD845) [compound 845]	35.8 Fold	24.0 Fold	12.1 Fold	
545 (VVLVLAAPAAVP; Amino acid Sequence of aMTD545) [compound 545]	34.6 Fold	23.1 Fold	11.7 Fold	
245 (AAALAPVLALVP; Amino acid Sequence of aMTD245) [compound 245]	7.5 Fold	5.0 Fold	2.5 Fold	
383 (VIVALAPALLAP; Amino acid Sequence of aMTD383) [compound 383]	11.6 Fold	7.7 Fold	3.9 Fold	
692 (PAPLPPVVILAV; Amino acid Sequence of rPeptide ID 692) [compound 692]				Relative Ratio to aMTD AVE [7]: 0.74
844 (VVALLAPLIAAP; Amino acid Sequence of aMTD844) [compound 844]	11.2 Fold	7.5 Fold	3.8 Fold	
724 (VAVLAVLPALAP; Amino acid Sequence of aMTD724) [compound 724]	47.5 Fold	31.8 Fold	16.1 Fold	
445 (ALAALVPALVVP; Amino acid Sequence of aMTD445) [compound 445]				Relative Ratio (Fold) A [4]: 6.9 Fold; Relative Ratio (Fold) C [5]: 2.3 Fold; Relative Ratio (Fold) B [6]: 4.6 Fold
